# Patent US9427415B2, “Methods and compositions for modifying sensorial perception” (The Procter & Gamble Company, priority 2014, dated 2016)
# Read-outs that look alike come from different tables or passages of the source.
# Tests used:
# [1] = target: T1, human TRPV1 (Homo sapiens, UniProt Q8NER1, M315I/T336M); test: Intracellular calcium (Fluo-4, FLIPR) activation of TRPV1 cells by GRAS compounds; format: cell-based; settings: relative to capsaicin 350 nM; for activation at 1000 µM / V1 activation, % of agonist value: 1 mM; for activation at 1000 µM / activation at 100 µM: read-out: V1 activation, % of agonist value; for activation at 100 µM: 100 μM (marked *);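 as to all read-outs here: TRPV1-expressing cells, FLIPR fluorescence at 488/514 nm with baseline subtracted, sampled every 2 s for 10 min after adding compound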
# T1 construct: expressed in transfected cells; pcDNA3 control cells
# T1 sequence (Q8NER1 whole entry M315I/T336M): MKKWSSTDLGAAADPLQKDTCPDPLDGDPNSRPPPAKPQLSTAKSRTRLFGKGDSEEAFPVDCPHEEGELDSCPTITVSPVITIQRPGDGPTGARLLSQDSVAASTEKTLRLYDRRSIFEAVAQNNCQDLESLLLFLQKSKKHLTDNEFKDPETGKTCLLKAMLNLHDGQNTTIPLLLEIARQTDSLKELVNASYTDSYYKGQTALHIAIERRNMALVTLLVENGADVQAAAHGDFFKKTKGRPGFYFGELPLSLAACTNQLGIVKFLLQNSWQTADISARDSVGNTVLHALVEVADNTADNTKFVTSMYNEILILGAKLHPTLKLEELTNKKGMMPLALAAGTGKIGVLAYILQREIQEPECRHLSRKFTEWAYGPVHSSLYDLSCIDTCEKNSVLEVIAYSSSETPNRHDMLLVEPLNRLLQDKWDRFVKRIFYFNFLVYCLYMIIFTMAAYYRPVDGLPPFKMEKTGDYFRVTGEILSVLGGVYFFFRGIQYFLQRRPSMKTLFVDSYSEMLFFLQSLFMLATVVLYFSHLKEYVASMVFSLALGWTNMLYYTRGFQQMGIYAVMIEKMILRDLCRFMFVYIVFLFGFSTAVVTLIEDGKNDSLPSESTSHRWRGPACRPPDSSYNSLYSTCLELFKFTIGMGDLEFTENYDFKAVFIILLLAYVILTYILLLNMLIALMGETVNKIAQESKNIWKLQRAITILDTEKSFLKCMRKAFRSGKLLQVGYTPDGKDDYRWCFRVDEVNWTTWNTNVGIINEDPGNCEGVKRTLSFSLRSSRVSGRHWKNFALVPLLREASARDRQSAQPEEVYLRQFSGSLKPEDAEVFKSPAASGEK
# [2] = tested on: TRPA1V1; test: Intracellular calcium (Fluo-4, FLIPR) activation of TRPA1V1 cells (co-expressing TRPA1 and TRPV1) by GRAS compounds; format: cell-based, human;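 also: HEK293 cells co-expressing TRPA1 and TRPV1, fluorescence read at 488/514 nm after baseline subtraction, recorded every 2 s over 10 min, ionomycin 10 µM and buffer as controls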
# [3] = target: T2, human TRPA1 (Homo sapiens, UniProt O75762, K186N/R3C/R58T); test: Intracellular calcium (Fluo-4, FLIPR) activation of TRPA1 cells by GRAS compounds; format: cell-based; settings: relative to AITC 30 μM; for A1 activation, % of agonist value / activation at 1000 µM: 1 mM; for activation at 1000 µM / activation at 100 µM: read-out: A1 activation, % of agonist value;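 as to all read-outs here: TRPA1-expressing cells, fluorescence read on a FLIPR Tetra (ex 488 nm, em 514 nm) every 2 s for 10 min after compound addition, baseline subtracted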
# T2 construct: expressed in transfected cells; pcDNA3 control cells
# T2 sequence (O75762 whole entry R3C/R58T/K186N): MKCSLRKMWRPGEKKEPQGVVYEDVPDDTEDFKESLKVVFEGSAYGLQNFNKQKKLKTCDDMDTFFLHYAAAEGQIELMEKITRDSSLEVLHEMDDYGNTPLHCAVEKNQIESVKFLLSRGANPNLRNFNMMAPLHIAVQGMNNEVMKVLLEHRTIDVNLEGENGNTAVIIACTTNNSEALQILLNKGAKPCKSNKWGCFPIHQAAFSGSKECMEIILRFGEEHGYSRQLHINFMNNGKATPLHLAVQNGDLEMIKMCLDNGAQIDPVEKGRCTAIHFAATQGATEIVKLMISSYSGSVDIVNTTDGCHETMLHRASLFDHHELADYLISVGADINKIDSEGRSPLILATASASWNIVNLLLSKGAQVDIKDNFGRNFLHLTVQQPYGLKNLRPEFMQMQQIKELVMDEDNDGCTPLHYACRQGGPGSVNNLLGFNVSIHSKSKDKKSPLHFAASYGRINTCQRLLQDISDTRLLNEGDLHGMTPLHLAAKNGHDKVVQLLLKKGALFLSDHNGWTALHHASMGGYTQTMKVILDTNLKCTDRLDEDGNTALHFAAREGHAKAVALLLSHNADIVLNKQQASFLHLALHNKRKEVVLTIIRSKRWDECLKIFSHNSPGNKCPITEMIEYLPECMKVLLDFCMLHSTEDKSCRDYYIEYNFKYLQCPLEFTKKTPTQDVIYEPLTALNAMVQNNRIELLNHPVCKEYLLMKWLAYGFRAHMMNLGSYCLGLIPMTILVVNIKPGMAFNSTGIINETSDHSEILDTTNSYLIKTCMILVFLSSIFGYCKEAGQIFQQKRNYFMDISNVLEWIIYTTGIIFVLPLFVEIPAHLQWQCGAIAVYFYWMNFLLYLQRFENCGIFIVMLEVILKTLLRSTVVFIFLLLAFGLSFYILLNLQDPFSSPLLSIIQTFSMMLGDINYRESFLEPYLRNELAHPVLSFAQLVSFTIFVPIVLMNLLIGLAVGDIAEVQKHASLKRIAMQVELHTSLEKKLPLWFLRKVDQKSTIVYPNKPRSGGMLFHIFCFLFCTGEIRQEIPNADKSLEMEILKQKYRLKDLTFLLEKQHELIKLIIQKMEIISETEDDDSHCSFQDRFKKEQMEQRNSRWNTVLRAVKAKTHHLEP
# [4] = Table 1(f), 1 mM, relative to capsaicin 350 nM
# [5] = Table 1(h), 1 mM, relative to capsaicin 350 nM
# [6] = Table 1(g), 1 mM, relative to capsaicin 350 nM
# [7] = Table 1(h), 100 μM (marked *), relative to capsaicin 350 nM
# [8] = Table 1(e), 1 mM, relative to AITC 30 μM
# [9] = Table 1(d), 1 mM, relative to AITC 30 μM
# [10] = Table 1(c), 100 μM (*), relative to AITC 30 μM
# [11] = Table 1(c), 1 mM, relative to AITC 30 μM
structure (smiles),measurement,setting,value
Cc1ccc(C(C)CC=O)o1 (stereo not shown) [3-(5-Methyl-2-furyl)butanal],activation at 1000 µM,[1]; Table 1(f),103%
same,"A1V1 activation, % of agonist value",[2]; [4],91.6%
"Cc1ccc(C)c(O)c1 [2,5-Dimethylphenol]",activation at 1000 µM,[1]; Table 1(h),81.2%
same,"A1V1 activation, % of agonist value",[2]; [5],34.2%
"O=C([O-])[C@H](O)[C@@H](O)[C@H](O)[C@H](O)CO.[K+] [Gluconic acid, monopotassium salt]",activation at 1000 µM,[1]; Table 1(h),33%
same,"A1V1 activation, % of agonist value",[2]; [5],14.0%
"CC(=O)c1cc(C)sc1C [3-Acetyl-2,5-dimethylthiophene]",activation at 1000 µM,[1]; Table 1(f),95.1%
same,"A1V1 activation, % of agonist value",[2]; [4],84.9%
Cc1ccc(C=O)s1 [5-Methyl-2-thiophenecarboxaldehyde],activation at 1000 µM,[1]; Table 1(g),58.9%
same,"A1V1 activation, % of agonist value",[2]; [6],111.4%
O=C(O)c1ccc(O)c(O)c1 [Protocatechuic acid],activation at 1000 µM,[1]; Table 1(g),60.6%
same,"A1V1 activation, % of agonist value",[2]; [6],121.05%
"O=CC(=Cc1ccco1)c1ccccc1 [2-Furanacrolein, alpha-phenyl-]","V1 activation, % of agonist value",[1]; Table 1(f),55.7%
same,"A1V1 activation, % of agonist value",[2]; [4],66.2%
CCc1ccc(C=O)cc1 [4-Ethylbenzaldehyde],activation at 1000 µM,[1]; Table 1(g),56.3%
same,"A1V1 activation, % of agonist value",[2]; [6],120.3%
Cc1ccc(C=O)c(O)c1 [m-Homosalicylaldehyde],activation at 1000 µM,[1]; Table 1(g),56.5%
same,"A1V1 activation, % of agonist value",[2]; [6],140.7%
CCC(C)(O)CCc1ccccc1 (stereo not shown) [3-Methyl-1-phenyl-3-pentanol],activation at 1000 µM,[1]; Table 1(h),100%
same,"A1V1 activation, % of agonist value",[2]; [5],70.5%
CC(C)c1ccccc1O [2-Isopropylphenol],activation at 1000 µM,[1]; Table 1(h),108%
same,"A1V1 activation, % of agonist value",[2]; [5],83.5%
CSCc1ccco1 [Furfuryl methyl sulfide],activation at 1000 µM,[1]; Table 1(g),50.1%
same,"A1V1 activation, % of agonist value",[2]; [6],111.6%
CCCCC1CCCCC(=O)O1 (stereo not shown) [Epsilon-Decalactone],"V1 activation, % of agonist value",[1]; Table 1(f),47.7%
same,"A1V1 activation, % of agonist value",[2]; [4],52.9%
COc1ccccc1 [Anisole],activation at 100 µM,[1]; Table 1(h),48.3%
same,"A1V1 activation, % of agonist value",[2]; [7],34.7%
"Cc1cccc(C)c1O [2,6-Dimethylphenol]",activation at 1000 µM,[1]; Table 1(h),72.1%
same,"A1V1 activation, % of agonist value",[2]; [5],45.8%
CC(C=O)=Cc1ccccc1 [alpha-Methylcinnamaldehyde],activation at 1000 µM,[1]; Table 1(g),54.6%
same,"A1V1 activation, % of agonist value",[2]; [6],104.4%
"CCCCCCCC=CC=CC=O [2,4-Dodecadienal]",activation at 100 µM,[1]; Table 1(h),199%
same,"A1V1 activation, % of agonist value",[2]; [7],53.5%
CCCCCCC1CCC(=O)O1 (stereo not shown) [4-Decanolide],activation at 1000 µM,[1]; Table 1(f),40.9%
same,"A1V1 activation, % of agonist value",[2]; [4],35.8%
CC1=CC(=O)[C@@H](C(C)C)CC1 [L-Piperitone],"A1V1 activation, % of agonist value",[2]; [8],68.40%
same,"A1 activation, % of agonist value",[3]; Table 1(e),45%
CCCCC/C=C\C/C=C\CCCCCCCC(=O)OC [Methyl linoleate],"A1V1 activation, % of agonist value",[2]; [8],81.7%
same,activation at 1000 µM,[3]; Table 1(e),31%
C=CC(O)CCCCCCC (stereo not shown) [dec-1-en-3-ol],"A1V1 activation, % of agonist value",[2]; [9],69.5%
same,activation at 1000 µM,[3]; Table 1(d),90%
CCOC(=O)C(C)S (stereo not shown) [Ethyl 2-mercaptopropionate],"A1V1 activation, % of agonist value",[2]; [10],70.2%
same,activation at 100 µM,[3]; Table 1(c),88.3%
CCC(=O)OCCC(C)CCC=C(C)C (stereo not shown) [Citronellyl propionate],"A1V1 activation, % of agonist value",[2]; [10],43.2%
same,activation at 100 µM,[3]; Table 1(c),52.5%
C=CC(C)=CCC=C(C)C [beta-Ocimene],"A1V1 activation, % of agonist value",[2]; [11],92%
same,activation at 1000 µM,[3]; Table 1(c),112%
CC/C=C\CCOC(=O)CC(C)C [cis-3-Hexenyl isovalerate],"A1V1 activation, % of agonist value",[2]; [9],51.6%
same,activation at 1000 µM,[3]; Table 1(d),71.7%
CCCOC(=O)c1ccccc1 [Propyl benzoate],"A1V1 activation, % of agonist value",[2]; [9],25.7%
same,activation at 1000 µM,[3]; Table 1(d),40.7%
CC(C=O)Cc1ccc(C(C)C)cc1 (stereo not shown) [Cyclamen aldehyde],"A1V1 activation, % of agonist value",[2]; [8],120.9%
same,"A1 activation, % of agonist value",[3]; Table 1(e),94.1%
CCCCCC(=O)CCCC(=O)OCC [Ethyl 5-oxodecanoate],"A1V1 activation, % of agonist value",[2]; [9],28.24%
same,activation at 1000 µM,[3]; Table 1(d),51%
C=CCc1ccc(O)c(OC)c1 [Eugenol],"A1V1 activation, % of agonist value",[2]; [11],91.29%
same,activation at 1000 µM,[3]; Table 1(c),79%
CCCCCCCCOC(=O)c1ccco1 [Octyl 2-furoate],"A1V1 activation, % of agonist value",[2]; [9],40.60%
same,activation at 1000 µM,[3]; Table 1(d),54.3%
"C=C(C)CCCC(C)CCO (stereo not shown) [3,7-Dimethyl-7-octen-1-ol]","A1V1 activation, % of agonist value",[2]; [9],70.7%
same,activation at 1000 µM,[3]; Table 1(d),93.7%
C=CC(C)(O)CCC=C(C)C (stereo not shown) [Linalool],"A1V1 activation, % of agonist value",[2]; [9],20%
same,activation at 1000 µM,[3]; Table 1(d),52.6%
